Common to all, as to assay type: functional
Holding throughout (set-up): scale not given: the % may be the effect or the level left

Test [1] deals with Rattus norvegicus. Briefly: Hypoglycemic activity in high fat diet fed Rattus norvegicus Sprague-Dawley (rat) type-2 diabetes model assessed as reduction in streptozotocin-induced blood glucose level at 20 mg/kg/day, po for 14 days measured after treatment.
Test [2] concerns Rattus norvegicus. The experiment in a line: Hypolipidemic activity in high fat diet fed Rattus norvegicus Sprague-Dawley (rat) type-2 diabetes model assessed as reduction in streptozotocin-induced cholesterol level at 20 mg/kg/day, po for 14 days measured after treatment.
The test system of test [3] is Rattus norvegicus. Briefly: Hypolipidemic activity in high fat diet fed Rattus norvegicus Sprague-Dawley (rat) type-2 diabetes model assessed as reduction in streptozotocin-induced triglyceride level at 20 mg/kg/day, po for 14 days measured after treatment.
Test [4] has as its system Rattus norvegicus. Briefly: Hypolipidemic activity in high fat diet fed Rattus norvegicus Sprague-Dawley (rat) type-2 diabetes model assessed as reduction in streptozotocin-induced triglyceride level at 10 mg/kg/day, po for 14 days measured after treatment.
Test [5] relates to Rattus norvegicus. The experiment in a line: Hypolipidemic activity in high fat diet fed Rattus norvegicus Sprague-Dawley (rat) type-2 diabetes model assessed as reduction in streptozotocin-induced cholesterol level at 10 mg/kg/day, po for 14 days measured after treatment.
The test system of test [6] is Rattus norvegicus. The experiment in a line: Hypoglycemic activity in high fat diet fed Rattus norvegicus Sprague-Dawley (rat) type-2 diabetes model assessed as reduction in streptozotocin-induced blood glucose level at 10 mg/kg/day, po for 14 days measured after treatment.

As for `O=C(COc1ccc(/C=C2\SC(=O)NC2=O)cc1)Nc1ncc([N+](=O)[O-])s1`, the Activity in test [1] worked out at 56.08%; in test [2], 92.46%; in test [3], 78.11%.
Take `NC(=O)c1cc(C(=O)COc2ccc(/C=C3\SC(=O)NC3=O)cc2)ccc1O`: the Activity was 64.43% in test [1], 89.7% in test [2] and 74.18% in test [3].
On to `CCc1ccc(CCOc2ccc(CC3SC(=O)NC3=O)cc2)nc1.Cl` (centres undefined) [PIOGLITAZONE HYDROCHLORIDE], for which the Activity in test [4] is 78.38%; in test [5] it was 86.83%; in test [6] it was 51.57%.

The values are drawn from ChEMBL document CHEMBL3045137, “Synthesis and evaluation of the hypoglycemic and hypolipidemic activity of novel 5-benzylidene-2,4-thiazolidinedione analogs in a type-2 diabetes model” (2011).
